Source: US12509462B2, “3-(phenylsulfonyl)-[1,2,3]triazolo[1,5A]quinazolin-5(4H)-one derivatives” (BIOVERSYS AG, priority 2018, dated 2025)
Converted amounts (≈) assume the structure as drawn.

Assays:
MRSA (USA300 isolate) = test: Hemolysis Assay I (exotoxin-mediated lysis of rabbit red blood cells by culture supernatant); format: cell-based, Staphylococcus aureus; settings: Staphylococcus aureus, Erythrocyte, 30/10/3.3/1.1/0.37 μM compound, values at OD600 of 0.75
[1] = tested on: Staphylococcus aureus MRSA strain (USA300 isolate); test: Hemolysis Assay II (exotoxin-mediated lysis of rabbit red blood cells by culture filtrate); format: cell-based; settings: Erythrocyte; for minimal effective concentration / IC95: 18 h; for minimal effective concentration: absorbance <2× the average of the complete inhibition control, read-out: Hemolysis assay II MEC (minimal effective concentration); for IC95: read-out: Hemolysis assay II IC95; for IC50: 18 h culture in CA-MHB, rabbit red blood cells
psmα = format: cell-based, Staphylococcus aureus
RNAIII = format: cell-based, Staphylococcus aureus; settings: 10 μM compound, two hours, MRSA (USA300 isolate), normalized to rpoD
[2] = molecular target: AgrAc (C-terminal domain of AgrA) (Staphylococcus aureus, UniProt P0A0I7); format: binding; settings: 15N-AgrAc 100 μM, 1.6 mM compound
Excerpt: 2D ^1H,^15N HSQC spectra were acquired at 298 K on a Bruker Avance IIIHD 600 MHz NMR spectrometer, equipped with a cryogenic triple resonance probe (Bruker, Karlsruhe, Germany). The proton chemical shifts were referenced using the methyl signal of sodium 3-trimethylsillyl-[2,2,3,3-d4]-propionate at 0 ppm. Spectra were processed with the Bruker TopSpin software package 3.5 and analyzed with the Sparky software. Assignments of AgrAc were deduced from the Biological Magnetic Resonance Bank (BMRB) entry 18598. Chemical shifts are reported in parts per million (δ) downfield from the internal standard tetramethylsilane (TMS). […]
For each sample tested, 400 μL of 15N-AgrAc @ […] in [50 mM NaPi pH6.3; 100 mM NaCl 3 mM THP; 5% D20; + TMSP] were mixed with 13 μL of the stock solution of the compound (dissolved in DMSO-d6). […] The samples were analysed on the 600 MHz spectrometer with the sample changer. […]
To produce ^15N-labeled C-terminal domain of AgrA (AgrAc), Escherichia coli BL21(DE3) cells were grown in a M9-based semi-rich medium: M9 medium supplemented with [^15N]—NH4Cl (1.5 g/liter), unlabeled D-glucose (4 g/liter), Isogro-^15N Powder-Growth medium (1 g/liter, 10%; Sigma-Aldrich). […] Elution of AgrAc was performed with a sharp gradient of imidazole (0-400 mM) and the fractions were analyzed by SDS-PAGE (4-20%). […] Protein concentration was estimated based on its UV absorbance at 280 nm.

HepG2 = settings: human, 48 h
MRSA = test: MIC by broth microdilution in CA-MHB (CLSI); settings: Staphylococcus aureus, 18 h, read-out: MIC on MRSA
red blood cell (RBC) = settings: cited from earlier work
S. aureus [3] = settings: cited from earlier work
MRSA USA300 type strain = settings: mice infected with a MRSA USA300 type strain, applied multiple times; cited from earlier work
S. aureus [4] = settings: cited from earlier work; remark: listed apart in the source

Sequence of AgrAc (C-terminal domain of AgrA) (P0A0I7 143-238): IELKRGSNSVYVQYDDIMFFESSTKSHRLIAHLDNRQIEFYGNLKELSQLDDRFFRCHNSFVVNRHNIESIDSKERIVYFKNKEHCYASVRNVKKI

SMILES	IC50 (MRSA (USA300 isolate)) [µM]	minimal effective concentration [1] [µg/mL]	IC95 [1] [µg/mL]	IC50 [1] [µg/mL]	Downregulation of psmα expression at 10 μM (psmα)	Downregulation of RNAIII expression at 10 μM (RNAIII)	Chemical shift perturbations upon binding to AgrAc [2]	LD50 HepG2 (HepG2)	MIC (MRSA) [µM]	Exotoxin-induced red blood cell (RBC) lysis (red blood cell (RBC))	Resistance after multiple passages (S. aureus [3])	Abscess size and dermo necrosis (MRSA USA300 type strain)	Viability of S. aureus (S. aureus [4])
Cc1ccc(S(=O)(=O)c2nnn3c2[nH]c(=O)c2ccccc23)c(C)c1 [Compound 34, 3-(2,4-dimethylphenyl)sulfonyl-4H-triazolo[1,5-a]quinazolin-5-one]	5	4	3.2 (≈ 9.03 µM)	0.9 (≈ 2.54 µM)	++ (++ downregulation>100-fold (2 log10))	++ (++ downregulation>100-fold (2 log10))	clearly show an interaction	>=100 μM	≥ 100				
CC(C)c1ccc(S(=O)(=O)c2nnn3c2nc(O)c2ccccc23)cc1 [Savirin, reference compound]	15	8	7.8 (≈ 21.2 µM)	2.6 (≈ 7.06 µM)	+ (key: 0=downregulation between 0 and 10-fold; + downregulation>10-fold (1 log10); ++ downregulation>100-fold (2 log10))	0 (0=downregulation between 0 and 10-fold)		>=100 μM	≥ 100	inhibited	No resistance was developed	significant reduction	without affecting viability
